Test results as given in patent US20160303156A1 (priority 2014, published 2016).
Where a name gives a salt, the structure may show the parent alone. Marks after values point to notes of the source that are not given here.

Key:
[1] = system: excretion of phenol red (secretory function of the respiratory tract); assay: Effect on excretion of phenol red in mice; assay type: in vivo, Kunming mice; conditions: for Phenol red concentration: oral gavage 2 days, trachea wash 30 min after i.p. phenol red, n = 10
Experimental: Kunming mice, female:male 1:1, weight 30-40 g, available from Guangdong Medical Laboratory Animal Center. […] Hitachi 3010 UV and visible spectrophotometer. […] After 30 min, the mice were sacrificed, and the trachea was detached. A section of the trachea from the thyroid cartilage to a branch of the trachea was excised, and placed in a test tube containing 3 ml of saline, to which 0.1 ml of a 15% sodium bicarbonate solution was then added. After centrifugation, the supernatant was taken and measured for the OD value at 546 nm. The phenol red content was calculated from a phenol red standard curve.

[2] = system: acemecholine (MeCh) induced airway hyperresponsiveness; assay: Airway responsiveness (Penh) under MeCh challenge in ovalbumin cough variant asthma model; assay type: in vivo, Hartley guinea pig; conditions: Penh % relative to normal saline challenge, n = 10
Experimental: (§1) 2.2 Modeling: except for the normal control group, the guinea pigs in the remaining groups were challenged by intraperitoneally injecting cyclophosphamide at a dosage of 30 mg/kg at day 1, intraperitoneally injecting 1 mL of a suspension containing 2 mg ovalbumin and 100 mg aluminium hydroxide at day 3, and injecting 1 mL of a suspension containing 0.01 mg ovalbumin and 100 mg aluminium hydroxide after 3 weeks. The guinea pigs in the normal control group were intraperitoneally injected with 1 mL of saline. After 3 weeks, all the animals for modeling were challenged by nebulization of a 1% ovalbumin solution for 90 s, and the animals in the normal control group inhaled saline for 90 s by nebulization.
(§2) The cough of guinea pig were counted as follows. 1 hr after the last dose, the guinea pigs were placed in a Buxco cough recorder, and induced to cough by using 1 mL of 50 μmol/L capsaicin, and the cough counts in 10 min (including the nebulization time) were recorded.
2.4 Determination of airway responsiveness (AR) in guinea pig: 24 hrs after cough determination, the enhanced pause (Penh) of guinea pig was determined in the Buxco whole body plethysmograph, and the variation in Penh after challenge by nebulization of acemecholine (MeCh) was measured.
The acemecholine (MeCh) concentrations used for challenging were respectively, from low to high, 100 mg/L, 200 mg/L, 400 mg/L, 800 mg/L, and 1600 mg/L. The average Penh upon challenge with each level of MeCh was recorded, and converted into percentages (Penh %) relative to the Penh value upon challenge with normal saline (NS), which was used as an evaluation criterion for AR.

[3] = system: ovalbumin induced atopic cough (cough variant asthma); assay: Capsaicin induced cough in ovalbumin induced atopic cough (cough variant asthma) model; assay type: in vivo, Hartley guinea pig; conditions: ovalbumin-challenged guinea pigs, 7 days dosing, 50 μmol/L capsaicin 1 hr after last dose, coughs in 10 min, n = 10
Experimental: as §1, §2

[4] = system: inflammatory cells in bronchial alveolar lavage fluid; assay: Differential leukocyte counts in bronchial alveolar lavage fluid, ovalbumin cough variant asthma model; assay type: in vivo, Hartley guinea pig; conditions: BALF
Experimental: as §1, §2
2.5 Bronchoalveolar lavage and differential leukocyte counts in bronchial alveolar lavage fluid (BALF): After AR determination, the guinea pigs were anesthetized with 30 mg/kg of pentobarbital sodium. Then, the neck skin was cut, and a median incision was made on the trachea, in which a tracheal cannula was inserted. Bronchoalveolar lavage was performed with 5 mL of saline. This was repeated 3 times, and the bronchial alveolar lavage fluid was collected. All the bronchial alveolar lavage fluid was centrifuged at 4° C. and 1500 rpm for 10 min, and the supernatant was stored at −80° C. for later use.

[5] = system: citric acid induced cough; assay: Inhibition on citric acid induced cough in guinea pig; assay type: in vivo, Hartley guinea pigs
Experimental: 1.1 Test animals: qualified Hartley guinea pigs, weight 250-300 g, female:male 1:1, available from Guangdong Medical Laboratory Animal Center.
1.3 Instrument: YLS-8A cough and asthma inducing instrument (a product available from Equipment Station of Shandong Academy of Medical Sciences).
The guinea pigs in each group were administered by oral gavage at a dosage of 0.5 ml/100 g of body weight, and equal volume of saline was given to the animals in the blank control group. 1 h after administration by oral gavage, the animals received spray of citric acid for 7 min. After the spray was completed, the cough counts were observed and recorded in ten minutes from the start of the spray (the typical cough is loud and clear and often accompanied by a forward rush).

[6] = Effect of naringin in combination with other drugs; conditions: used in combination with naringin

Nc1c(Br)cc(Br)cc1CN[C@H]1CC[C@H](O)CC1 [Ambroxol, ambroxol]
Phenol red concentration [1]: 1.55 ± 0.46 ^ μg/ml

C[C@@H]1O[C@@H](O[C@H]2[C@H](Oc3cc(O)c4c(c3)O[C@H](c3ccc(O)cc3)CC4=O)O[C@H](CO)[C@@H](O)[C@@H]2O)[C@H](O)[C@H](O)[C@H]1O [Naringin, naringin]
Airway responsiveness under challenge with MeCh ([2]; MeCh 100 mg/L): 276 ± 69 | Airway responsiveness under challenge with MeCh ([2]; MeCh 200 mg/L): 783 ± 147 | Airway responsiveness under challenge with MeCh ([2]; MeCh 400 mg/L): 857 ± 108 | Airway responsiveness under challenge with MeCh ([2]; MeCh 800 mg/L): 1636 ± 169 | Airway responsiveness under challenge with MeCh ([2]; MeCh 1600 mg/L): 2749 ± 253 | Cough counts [3]: 12.9 ± 4.3 ^ | Effect on excretion of phenol red / sputum reducing effect (in words) [1]: obviously enhance the excretion of phenol red | Phenol red concentration [1]: 1.64 ± 0.67 ^ μg/ml | Reduction of total leukocyte, lymphocyte, neutrophil and eosinophil counts (in words) [4]: significantly reduce | Lymphocyte counts ([4]; guinea pigs, n = 10): 21.5 ± 3.7** 10^7/L | Neutrophil counts ([4]; guinea pigs, n = 10): 30.1 ± 6.5** 10^7/L | Total leukocyte counts ([4]; guinea pigs, n = 10): 135.5 ± 28.6** 10^7/L | Cough relieving effect (in words) ([5]; citric acid induced cough): obvious cough relieving effect | Cough count ([5]; oral gavage, citric acid spray 7 min 1 h after dosing, coughs in ten minutes, n = 8): 22.4 ± 3.7 ^

CN1CCCC(n2nc(Cc3ccc(Cl)cc3)c3ccccc3c2=O)CC1 (centres unmarked) [azelastine hydrochloride]
Synergistic effect in combination with naringin [6]: no synergistic effect

CN(C)CCC(c1ccc(Cl)cc1)c1ccccn1 (centres unmarked) [chlorpheniramine maleate]
Synergistic effect in combination with naringin [6]: no synergistic effect

Clc1ccc2c(c1)CCc1cccnc1C2=C1CCNCC1 [desloratadine]
Synergistic effect in combination with naringin [6]: no synergistic effect

NC1=NCC2c3ccccc3Cc3ccccc3N12 (centres unmarked) [epinastine hydrochloride]
Synergistic effect in combination with naringin [6]: no synergistic effect

CCOC(=O)N1CCC(=C2c3ccc(Cl)cc3CCc3cccnc32)CC1 [loratadine]
Synergistic effect in combination with naringin [6]: no synergistic effect

CN(c1nccc(=O)[nH]1)C1CCN(c2nc3ccccc3n2Cc2ccc(F)cc2)CC1 [mizolastine]
Synergistic effect in combination with naringin [6]: no synergistic effect

dimenhydrinate hydrochloride
Synergistic effect in combination with naringin [6]: no synergistic effect

theohydramine hydrochloride
Synergistic effect in combination with naringin [6]: no synergistic effect
